Laboratory results published in PubChem BioAssay AID743477 (Broad Institute, 2014).
Several values for one entry are separate records, joined by “and”; a condition that tells them apart may be missing. Identical values can stand only once. Activity calls are given as the source filed them.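 Rule for the calls: active = fitted curve drops to -35% activity change at a dose no higher than twice the top valid tested dose; inconclusive = no clear call, values can overlap the other calls; inactive = the rest, including effects opposite to the expected drop.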

Experiments:
[1] = system: TC71 Ewing sarcoma viability, CellTiter-Glo ATP, 72 h; test: TC71 Ewing sarcoma cell viability loss – luminescence, retest at dose, dry powder, confirmation (AID 743477)
[2] = as above; details: TC71 Ewing sarcoma viability, CellTiter-Glo ATP, 72 h

SMILES	AC35 [1]	further results
CCOC(=O)CCNc1cc(N2CCc3ccccc3CC2)nc(-c2ccccn2)n1	2590 nM	–
CCC(C)(C)C(=O)O[C@H]1C[C@@H](C)C=C2C=C[C@H](C)[C@H](CC[C@@H]3C[C@@H](O)CC(=O)O3)[C@H]21	–	activity change, negative = cytotoxicity ([2]; at 26 µM (top of the series)): -7.31% (inactive)
COc1ccc(C2=Nn3c(nnc3-c3ccccc3)SC2)cc1OC	–	activity change, negative = cytotoxicity ([2]; at 26 µM (top of the series)): -10.7% (inactive)
COc1cccc(S(=O)(=O)N2CC[C@@H]3[C@@H](CO)Nc4ccc(-c5ccc(C#N)cc5)cc4[C@@H]32)c1	21000 nM	–
N#CC1=C(N)Oc2cc(N)ccc2C1c1ccc2ccccc2c1 (stereo not drawn)	11900 nM	–
CN1c2ccc(-c3ccc(C#N)cc3)cc2[C@H]2[C@H](CCN2S(=O)(=O)c2ccc(F)cc2)[C@H]1CO	–	activity change, negative = cytotoxicity ([2]; at 26 µM (top of the series)): -15.7% (inactive)
N#CC1=C(N)Oc2cc(N)ccc2C12C(=O)Nc1ccc(Br)cc12 (stereo not drawn)	–	activity change, negative = cytotoxicity ([2]; at 26 µM (top of the series)): -13% (inactive)
COc1cccc(C2C(C#N)=C(N)Oc3cc(N)ccc32)c1 (stereo not drawn)	571 nM	–
N#CC1=C(N)Oc2cc3c(cc2C1c1cccc(Br)c1)OCO3 (stereo not drawn)	49.7 nM	–
COc1ccccc1C1C(C#N)=C(N)Oc2cc(N)ccc21 (stereo not drawn)	–	activity change, negative = cytotoxicity ([2]; at 26 µM (top of the series)): -24.3% (inactive)
Nc1ncnc2c1c(-c1cccc(OCc3ccccc3)c1)cn2C1CC(CN2CCCC2)C1 (stereo not drawn)	10500 nM	–
COc1ccc(S(=O)(=O)N2CC[C@@H]3[C@@H](CO)N(C)c4ccc(-c5ccc(F)cc5)cc4[C@@H]32)cc1	3410 nM	–
Clc1ccccc1-c1nnc2n1N=C(c1ccc3c(c1)OCO3)CS2	411 nM	–
COc1ccc(CNc2nc(N3CCC[C@H]3CO)ncc2C(=O)NCc2ncccn2)cc1Cl	–	activity change, negative = cytotoxicity ([2]; at 26 µM (top of the series)): -6.81% (inactive)
CN(C)c1ccc2c(c1)OC(N)=C(C#N)C2c1cccc(F)c1 (stereo not drawn)	21.4 nM	–
COc1ccc(C2CNC(=O)C2)cc1OC1CCCC1 (stereo not drawn)	–	activity change, negative = cytotoxicity ([2]; at 26 µM (top of the series)): 1.67% (inactive)
N#Cc1ccc(-c2ccc3c(c2)[C@H]2[C@H](CCN2S(=O)(=O)c2ccccc2F)[C@@H](CO)N3)cc1	11000 nM	–
COc1ccc(NC(=O)Nc2ccc3c(c2)C(=O)N([C@@H](C)CO)C[C@H](C)[C@H](CN(C)Cc2ccc4c(c2)OCO4)O3)cc1	–	activity change, negative = cytotoxicity ([2]; at 12 µM (top of the series)): -31.5% (inactive)
CCCCc1ccc2nc(NC(=O)OC)[nH]c2c1	< 50 nM	–
Cc1nc(Nc2ncc(C(=O)Nc3c(C)cccc3Cl)s2)cc(N2CCN(CCO)CC2)n1	26800 nM	–
N#CC1=C(N)Oc2ccc3ccccc3c2C1c1cccc(F)c1 (stereo not drawn)	677 nM	–
CC[C@]1(O)CC2CN(CCc3c([nH]c4ccccc34)[C@@](C(=O)OC)(c3cc4c(cc3OC)N(C=O)[C@H]3[C@@](O)(C(=O)OC)[C@H](OC(C)=O)[C@]5(CC)C=CCN6CC[C@]43[C@@H]65)C2)C1 (stereo partly drawn)	< 1.5 nM	–
COc1cc(C2C(C#N)=C(N)Oc3cc(N(C)C)ccc32)cc2c1OCO2 (stereo not drawn)	132 nM	–
COc1ccc(-c2ccc3c(c2)[C@H]2[C@H](CCN2S(=O)(=O)c2ccc(OC)cc2)[C@@H](CO)N3)cc1	3720 nM	–
N#CC1=C(N)Oc2cc(O)ccc2C1c1cccc(Br)c1 (stereo not drawn)	2720 nM	–
CC(C)(O)CCc1ccc(O)c2c(=O)c3c(O)c4c(cc3oc12)O[C@H]1OC=C[C@@]41O	< 26 nM	–

SMILES	AC35 [1]	further results
COC(=O)c1ccc(C2C(C#N)=C(N)Oc3cc(N)ccc32)cc1 (stereo not drawn)	–	activity change, negative = cytotoxicity ([2]; at 26 µM (top of the series)): -13.5% (inactive)
Cc1ccc(S(=O)(=O)N2CC[C@@H]3[C@@H](CO)Nc4ccc(-c5ccc(C#N)cc5)cc4[C@@H]32)cc1	18600 nM	–
COc1ccc(S(=O)(=O)N(C(C)=O)c2ccc(OC(C)=O)c3ccccc23)cc1[N+](=O)[O-]	4460 nM	–
CN1c2ccc(-c3ccc(C#N)cc3)cc2[C@H]2[C@H](CCN2S(=O)(=O)c2cccc(F)c2)[C@H]1CO	3760 nM	–
CC[C@@]1(O)C(=O)OCc2c1cc1n(c2=O)Cc2cc3c(CN(C)C)c(O)ccc3nc2-1	29 nM	–
O=C(Nc1c(Cl)cncc1Cl)c1ccc(OC(F)F)c(OCC2CC2)c1	–	activity change, negative = cytotoxicity ([2]; at 26 µM (top of the series)): -7.16% (inactive)
COc1ccc(C(=O)CC2(O)C(=O)Nc3c(Cl)ccc(Cl)c32)cc1 (stereo not drawn)	2930 nM	–
N#CC1=C(N)Oc2cc(N)ccc2C1c1ccc(Cl)cc1 (stereo not drawn)	–	activity change, negative = cytotoxicity ([2]; at 26 µM (top of the series)): -10.5% (inactive)
N#CC1=C(N)Oc2cc(N)ccc2C1c1cccc(Br)c1 (stereo not drawn)	183 nM	–
N#CC1=C(N)Oc2cc(N)ccc2C1c1ccccc1 (stereo not drawn)	12800 nM	–
COc1ccc(C2C(C#N)=C(N)Oc3cc(N)ccc32)cc1 (stereo not drawn)	–	activity change, negative = cytotoxicity ([2]; at 26 µM (top of the series)): -6.57% (inactive)
Cc1ccc(C2C(C#N)=C(N)Oc3cc(N)ccc32)cc1 (stereo not drawn)	–	activity change, negative = cytotoxicity ([2]; at 26 µM (top of the series)): -0.007% (inactive)
CN(C(=O)CCCOc1ccc2[nH]c(=O)ccc2c1)C1CCCCC1	–	activity change, negative = cytotoxicity ([2]; at 26 µM (top of the series)): -11% (inactive)
COc1cc([C@@H]2c3cc4c(cc3[C@@H](O[C@@H]3O[C@@H]5CO[C@@H](C)O[C@H]5[C@H](O)[C@H]3O)[C@H]3COC(=O)[C@H]23)OCO4)cc(OC)c1O	577 nM	–
C[C@@]1(C(=O)Nc2ccc(F)nc2)CCCN1c1nc(Nc2cc(C3CC3)[nH]n2)c2cccn2n1	458 nM	–
Cc1cc(Nc2cc(N3CCN(C)CC3)nc(Sc3ccc(NC(=O)C4CC4)cc3)n2)n[nH]1	2150 nM	–
COc1ccc(C2=Nn3c(nnc3-c3ccccc3OC)SC2)cc1OC	61.3 nM	–
COc1ccccc1-c1nnc2n1N=C(c1ccc(O)c(O)c1)CS2	1320 nM	–
COc1ccc(-c2cc(NC(C)=O)c3ncc(-c4ccc(OC)c(OC)c4)n3c2)cc1	–	activity change, negative = cytotoxicity ([2]; at 26 µM (top of the series)): -8.1% (inactive)
COc1ccc(S(=O)(=O)N2CC[C@@H]3[C@@H](CO)Nc4ccc(-c5cccc(C#N)c5)cc4[C@@H]32)cc1	4140 nM	–
CCc1c2c(nc3ccc(O)cc13)-c1cc3c(c(=O)n1C2)COC(=O)C3(O)CC (stereo not drawn)	1.99 nM	–
O=C(c1cc(Cc2n[nH]c(=O)c3ccccc23)ccc1F)N1CCN(C(=O)C2CC2)CC1	2300 nM	–
COc1ccc(S(=O)(=O)N2CC[C@@H]3[C@@H](CO)Nc4ccc(-c5ccc(C#N)cc5)cc4[C@@H]32)cc1	3780 nM	–
COc1ccccc1-c1nnc2n1N=C(c1ccc3c(c1)OCO3)CS2	20.7 nM	–
Clc1ccc(-c2cnc3ccc(-c4ccccc4)cn23)cc1	–	activity change, negative = cytotoxicity ([2]; at 6 µM (top of the series)): -1.71% (inactive)
Cc1ccc([N+](=O)[O-])cc1S(=O)(=O)N(C)C	7950 nM	–

SMILES	AC35 [1]	further results
COc1ccc(S(=O)(=O)N2CC[C@@H]3[C@H](CO)Nc4ccc(-c5ccc(C#N)cc5)cc4[C@@H]32)cc1	7920 nM	–
COc1ccc(C2=Nn3c(nnc3-c3ccccc3Cl)SC2)cc1OC	427 nM	–
COc1ccc(C2=Nn3c(nnc3-c3ccccc3F)SC2)cc1OC	3340 nM	–
CCC(C)C(=O)OC1CC(C)C=C2C=CC(C)C(CCC(O)CC(O)CC(=O)O)C21 (stereo not drawn)	45300 nM	–
CN1CCN(CCOc2cc(OC3CCOCC3)c3c(Nc4c(Cl)ccc5c4OCO5)ncnc3c2)CC1	21200 nM	–
C=C([C@@H](O)[C@@H](C)O)[C@@H](OC)[C@]1(C)Cc2cc3cc(O[C@H]4CC(OC5CC(O)C(O)C(C)O5)C(O)C(C)O4)cc(O)c3c(O)c2C(=O)[C@H]1OC1CC(OC2CC(OC3CC(C)(O)C(O)C(C)O3)C(O)C(C)O2)C(O)C(C)O1 (stereo partly drawn)	55.8 nM	–
O=P1(NCCCl)OCCCN1CCCl (stereo not drawn)	–	activity change, negative = cytotoxicity ([2]; at 50 µM (top of the series)): 3.6% (inactive)
Nc1ccn([C@@H]2O[C@H](CO)[C@H](O)C2O)c(=O)n1 (stereo partly drawn)	585 nM	–
CC(C)N1c2ccccc2C(c2ccc(F)cc2)C1/C=C/C(O)CC(O)CC(=O)O (stereo not drawn)	2590 nM	–
CC1(C)CC(c2nc(-c3ccc4ccc(-c5ccccc5)nc4c3)c3c(N)nccn23)C1	4500 nM	–
COc1ccc(-c2cc(NC=O)c3ncc(-c4ccc(OC)c(OC)c4)n3c2)cc1	563 nM	–
COc1ccc(OC)c(-c2nnc3n2N=C(c2ccc(OC)c(OC)c2)CS3)c1	27.6 nM and 22.6 nM	–
N#CC1=C(N)Oc2cc(OC(=O)c3ccccc3)ccc2C1c1cccc(Br)c1 (stereo not drawn)	3080 nM	–
CCN(CCO)CCCOc1ccc2c(Nc3cc(CC(=O)Nc4cccc(F)c4)[nH]n3)ncnc2c1	–	activity change, negative = cytotoxicity ([2]; at 1.6 µM (top of the series)): -35.4% (inactive)
Cc1c([C@H](C(Cl)Cl)[C@H](O)[C@H]2C[C@H](C)C(=O)O2)ccc2c1C(=O)[C@H]1[C@H]2C[C@@H](Br)[C@@]23O[C@@H](CO[C@H]2O)C[C@]13C	< 50 nM	–
COc1ccc(-c2ccc3c(c2)[C@H]2[C@H](CCN2S(=O)(=O)c2ccc(OC)cc2)[C@@H](CO)N3C)cc1	3190 nM	–
Cc1cccc(C2C(C#N)=C(N)Oc3cc(N)ccc32)c1 (stereo not drawn)	689 nM	–
COc1ccccc1S(=O)(=O)N1CC[C@@H]2[C@@H](CO)Nc3ccc(-c4ccc(C#N)cc4)cc3[C@@H]21	10500 nM	–
Cn1cc(-c2ccncc2)c(-c2ccc(OCc3ccc4ccccc4n3)cc2)n1	20000 nM	–
C[C@]1(c2nc3c(C(N)=O)cccc3[nH]2)CCCN1	–	activity change, negative = cytotoxicity ([2]; at 26 µM (top of the series)): -3.66% (inactive)
N#CC1=C(N)Oc2cc(N)ccc2C1c1cccc(F)c1 (stereo not drawn)	1770 nM	–
COc1cccc2c1C(=O)c1c(O)c3c(c(O)c1C2=O)C[C@@](O)(C(=O)CO)C[C@@H]3O[C@H]1C[C@H](N)[C@H](O)[C@H](C)O1	< 50 nM	–
O=C(Cc1ccc(-c2ccc(OCCN3CCOCC3)cc2)cn1)NCc1ccccc1	< 23.5 nM	–
N#CC1=C(N)Oc2cc(N)ccc2C1c1ccccc1Cl (stereo not drawn)	10600 nM	–
Cc1ccccc1C1C(C#N)=C(N)Oc2cc(N)ccc21 (stereo not drawn)	13200 nM	–
N#Cc1ccc(-c2ccc3c(c2)[C@H]2[C@H](CCN2S(=O)(=O)c2cccc(F)c2)[C@@H](CO)N3)cc1	7800 nM	–
